In patent publication US20220119399A1, “COMPOUNDS AND COMPOSITIONS THAT CAUSE MYCN AND/OR CMYC DEGRADATION AND METHODS OF USE THEREOF” (THE TRUSTEES OF COLUMBIA UNIVERSITY IN THE CITY OF NEW YORK, priority 2018, published 2022):

Tested on: cMyc
Experiment: Western blot of cMyc in A549 cells
Format: cell-based
Conditions: A549 cells, 5, 10, or 15 μM, 24 hrs
From the text: Membranes were blocked using Odyssey Blocking Buffer (LI-COR) for 1 hr at room temperature. […] Primary antibodies used in these studies include: MycN (CST; 1:500 dilution), Actin (SCBT; 1:2000 dil.), cMYC (CST; 1:500 dil.), pAKT (S473; CST; 1:500 dil.), AKT (CST; 1:2000), pP70 (T389; CST; 1:1000) P70 (CST; 1:1000).
There are some shared upstream regulatory pathways that govern both MycN and cMyc expression, including mTOR signaling cascade (Guertin and Sabatini 2007; Hay and Sonenberg 2004). We hypothesized that isopomiferin could disrupt the expression of cMyc as well. We identified a cMyc-expressing lung cancer line, A549, and treated cells with 5, 10, or 15 μM isopomiferin for 24 hrs (FIG. 3D).

SMILES: CC1(C)C=Cc2c(c3c(c4c(=O)c(-c5ccc(O)c(O)c5)coc24)OC(C)(C)CC3)O1 [isopomiferin]
- cMyc protein abundance: suppressed cMyc protein abundance in A549 in a dose dependent manner
